Reference: patent publication US20070276034A1, “Compounds, compositions and methods for the treatment of synucleinopathies” (priority 2002, published 2007)
Where two headings read alike, the source gives them in different places. Values belong to the molecule of their own block, whether it stands above or below them.

Columns and labels:
Type in all cases: biochemical
Aβ 1-42 fibrils = target: T1, Aβ 1-42 fibrils (Homo sapiens, UniProt P05067); test: Thioflavin T fluorometry - disruption of pre-formed Aβ 1-42 Alzheimer's fibrils; details: 3 days; for inhibition / % Inhibition Aβ (result ± S.D.): 25 μM pre-fibrillized Aβ 1-42, 37° C.; for inhibition: read-out: % Inhibition Aβ (result ± S.D.)
T1 construct: purchased Bachem Inc
T1 sequence (P05067 672-713): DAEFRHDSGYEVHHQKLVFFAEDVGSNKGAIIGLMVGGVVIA
How it was run: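 Pre-fibrillized Aβ1-42 (25 µM) incubated 3 days at 37 °C alone or with compound at Aβ:compound weight ratios 1:1 to 1:0.001. Remaining fibrils quantified by Thioflavin T fluorescence (ex 444/em 485 nm) in phosphate buffer pH 6.8, blank-subtracted for buffer or compound alone.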

IAPP fibrils [1] = target: T2, IAPP fibrils (Homo sapiens, UniProt P10997); test: Congo red binding assay with IAPP fibrils; details: for % Inhibition IAPP (result ± S.D.), Congo red binding: 3-day incubation
T2 construct: purchased Bachem Inc
T2 sequence (P10997 34-70 limits assumed): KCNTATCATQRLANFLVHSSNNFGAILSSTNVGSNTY
How it was run: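 Congo red staining of washed 0.2 μm filters measured the aggregated IAPP retained after a 3-day co-incubation with compound or EDTA. Weight ratios IAPP:compound were 1:1, 1:0.1, 1:0.01 or 1:0.001; loss of color relative to compound-free IAPP was scored.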

NAC fibrils = target: T3, NAC fibrils (Homo sapiens, UniProt P37840); test: Thioflavin T fluorometry - disruption of Parkinson's disease NAC fibrils; details: 3 days; for inhibition / % Inhibition NAC (result ± S.D.): 25 μM pre-fibrillized NAC, 37° C.; for inhibition: read-out: % Inhibition NAC (result ± S.D.); for disruption/disassembly of pre-formed NAC fibrils (in words): all concentrations tested (ratios 1:1 to 1:0.001)
T3 construct: NAC is a 35-amino acid fragment of α-synuclein; purchased Bachem Inc
Method: In this assay, Thioflavin T binds specifically to NAC fibrils, and this binding produces a fluorescence enhancement at 485 nm that is directly proportional to the amount of NAC fibrils present. The higher the fluorescence, the greater the amount of NAC fibrils present (Naki et al, Lab. Invest. 65:104-110, 1991; Levine III, Protein Sci. 2:404-410, 1993; Amyloid: Int. J. Exp. Clin. Invest. 2:1-6, 1995).
In this study, 25 μM of pre-fibrillized NAC (Bachem Inc) was incubated at 37° C. for 3 days either alone or in the presence of dihydroxy synthetic analog compounds #1, 3, 23, 26, 52, 63, 66, 67, or EDTA (at NAC:test compound weight ratios of 1:1, 1:0.1, 1:0.01 or 1:0.001). Following 3-days of co-incubation, 50 βl of each incubation mixture was transferred into a 96-well microtiter plate containing 150 μl of distilled water and 50 μl of a Thioflavin T solution (i.e. 500 mM Thioflavin T in 250 mM phosphate buffer, pH 6.8). The fluorescence was read at 485 nm (444 nm excitation wavelength) using an ELISA plate fluorometer after subtraction with buffer alone or compound alone, as blank.

IAPP fibrils [2] = target: T2, IAPP fibrils; test: Thioflavin T fluorometry - disruption of type 2 diabetes IAPP fibrils; details: 3 days; for inhibition / % Inhibition IAPP (result ± S.D.): 25 μM pre-fibrillized IAPP, 37° C.; for inhibition: read-out: % Inhibition IAPP (result ± S.D.)
How it was run: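 Pre-fibrillized human IAPP (25 μM) incubated 3 days at 37 °C alone or with compound at IAPP:compound weight ratios of 1:1 to 1:0.001. Mixtures then mixed with Thioflavin T in phosphate buffer pH 6.8; fluorescence read at 485 nm (ex 444 nm) after blank subtraction.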

[3] = Aβ:test compound wt/wt ratio 1:0.001
[4] = Aβ:test compound wt/wt ratio 1:0.01
[5] = Aβ:test compound wt/wt ratio 1:0.1
[6] = Aβ:test compound wt/wt ratio 1:1
[7] = IAPP:test compound wt/wt ratio 1:0.001
[8] = IAPP:test compound wt/wt ratio 1:0.01
[9] = IAPP:test compound wt/wt ratio 1:0.1
[10] = IAPP:test compound wt/wt ratio 1:1
[11] = NAC:test compound wt/wt ratio 1:0.001
[12] = NAC:test compound wt/wt ratio 1:0.01
[13] = NAC:test compound wt/wt ratio 1:0.1
[14] = NAC:test compound wt/wt ratio 1:1
[15] = all concentrations tested (ratios 1:1 to 1:0.001)

- inhibition (Aβ 1-42 fibrils; [3]): 13.7 ± 6.05%
- inhibition (Aβ 1-42 fibrils; [4]): 34 ± 14.1%
- inhibition (Aβ 1-42 fibrils; [5]): 50.9 ± 8.32%
- inhibition (Aβ 1-42 fibrils; [6]): 98.3 ± 2.19%
- % Inhibition IAPP (result ± S.D.), Congo red binding (IAPP fibrils [1]; [7]): 0.0 ± 3.45%
- % Inhibition IAPP (result ± S.D.), Congo red binding (IAPP fibrils [1]; [8]): 10.6 ± 1.29%
- % Inhibition IAPP (result ± S.D.), Congo red binding (IAPP fibrils [1]; [9]): 5.5 ± 2.52%
- % Inhibition IAPP (result ± S.D.), Congo red binding (IAPP fibrils [1]; [10]): 26.3 ± 2.76%
- inhibition (NAC fibrils; [11]): 11.9 ± 16%
- inhibition (NAC fibrils; [12]): 30.6 ± 5.75%
- inhibition (NAC fibrils; [13]): 50 ± 7.03%
- inhibition (NAC fibrils; [14]): 97.4 ± 1.19%
- disruption/disassembly of pre-formed NAC fibrils (in words) (NAC fibrils): dose-dependent disruption/disassembly
- inhibition (IAPP fibrils [2]; [7]): 16.1 ± 12.4%
- inhibition (IAPP fibrils [2]; [8]): 34.8 ± 1.87%
- inhibition (IAPP fibrils [2]; [9]): 81.4 ± 6.96%
- inhibition (IAPP fibrils [2]; [10]): 98.6 ± 0.22%
Compound: O=C(CCC(=O)NCc1ccc(O)c(O)c1)NCc1ccc(O)c(O)c1 [Compound 67, succinic acid bis(3,4-dihydroxybenzylamide)]

Compound: O=C(O)CN(CCN(CC(=O)O)CC(=O)O)CC(=O)O [EDTA, reference compound]
- % Inhibition Aβ (result ± S.D.) (Aβ 1-42 fibrils; [3]): 0.0 ± 3.01%
- % Inhibition Aβ (result ± S.D.) (Aβ 1-42 fibrils; [4]): 0.0 ± 4.88%
- % Inhibition Aβ (result ± S.D.) (Aβ 1-42 fibrils; [5]): 0.0 ± 7.12%
- % Inhibition Aβ (result ± S.D.) (Aβ 1-42 fibrils; [6]): 11.3 ± 9.67%
- disruption/disassembly of preformed Aβ 1-42 fibrils (in words) (Aβ 1-42 fibrils; [15]): no significant inhibition
- % Inhibition IAPP (result ± S.D.), Congo red binding (IAPP fibrils [1]; [7]): 6.6 ± 2.27%
- % Inhibition IAPP (result ± S.D.), Congo red binding (IAPP fibrils [1]; [8]): 3.6 ± 2.83%
- % Inhibition IAPP (result ± S.D.), Congo red binding (IAPP fibrils [1]; [9]): 0.0 ± 1.91%
- % Inhibition IAPP (result ± S.D.), Congo red binding (IAPP fibrils [1]; [10]): 0.0 ± 3.69%
- inhibition of IAPP fibril binding to Congo red (in words) (IAPP fibrils [1]; all concentrations tested (ratios 1:1 to 1:0.001), 3 days): no significant inhibition
- % Inhibition NAC (result ± S.D.) (NAC fibrils; [11]): 0.0 ± 11.6%
- % Inhibition NAC (result ± S.D.) (NAC fibrils; [12]): 0.0 ± 10.87%
- % Inhibition NAC (result ± S.D.) (NAC fibrils; [13]): 0.0 ± 5.87%
- % Inhibition NAC (result ± S.D.) (NAC fibrils; [14]): 20.0 ± 11.8%
- disruption/disassembly of pre-formed NAC fibrils (in words) (NAC fibrils): no significant inhibition
- % Inhibition IAPP (result ± S.D.) (IAPP fibrils [2]; [7]): 4.2 ± 1.05%
- % Inhibition IAPP (result ± S.D.) (IAPP fibrils [2]; [8]): 0.0 ± 5.23%
- % Inhibition IAPP (result ± S.D.) (IAPP fibrils [2]; [9]): 0.1 ± 2.59%
- % Inhibition IAPP (result ± S.D.) (IAPP fibrils [2]; [10]): 4.4 ± 9.23%
- disruption/disassembly of pre-formed IAPP fibrils (in words) (IAPP fibrils [2]; [15]): no significant inhibition
